Like-named read-outs stand apart in the source and are kept apart here. Residues, ends and D or L forms follow the SMILES beside them.
Legend:
MCH-2R = MCH-2R (Homo sapiens, UniProt Q969V1); test: Aequorin bioluminescence functional assay, 293AEQ17/MCH-2R cells; assay type: cell-based; parameters: expressed in transfected cells; MCH-2R Activation %: concentration or dose not given beside the values; conditions: for MCH-2R Activation %: human MCH = 100
Excerpt: (§1) The aequorin bioluminescence assay is a reliable test for identifying G-protein-coupled receptors that couple through the G protein subunit family consisting of Gq and G11. Gq and G11 coupling leads to the activation of phospholipase C, mobilization of intracellular calcium, and activation of protein kinase C.
Stable cell lines expressing either the MCH-1R or the MCH-2R and the aequorin reporter protein were used.
(§2) The cells were harvested, washed once in ECB medium, and resuspended to 500,000 cells/mL. 100 μL of cell suspension (corresponding to 5×10^4 cells) was then injected into the test plate containing the hMCH peptides, and the integrated light emission was recorded over 30 seconds, in 0.5-s units. 20 μL of lysis buffer (0.1% final Triton X-100 concentration) was then injected and the integrated light emission recorded over 10 seconds, in 0.5-s units. The “fractional response” values for each well were calculated by taking the ratio of the integrated response to the initial challenge to the total integrated luminescence including the Triton X-100 lysis response.

MCH-1R [1] = target: T1, MCH-1R (Homo sapiens, UniProt Q99705); test: Aequorin bioluminescence functional assay, 293AEQ17/MCH-1R cells; assay type: cell-based; parameters: expressed in transfected cells; conditions: for MCH-1R Activation %: human MCH = 100, activation at 10 μM concentration
Description: as §1
Stable cell lines expressing either the MCH-1R or the MCH-2R and the aequorin reporter protein were used. The assay was performed using a Luminoskan RT luminometer (Labsystems Inc., Gaithersburg, Md.) controlled by custom software written for a Macintosh PowerPC 6100.
as §2

MCH-1R [2] = target: T1, MCH-1R; conditions: binding ratio
[3] = aequorin, 293AEQ17/MCH-1R cells, read-out: MCH-1R EC50

Sequence of MCH-2R (Q969V1 whole entry): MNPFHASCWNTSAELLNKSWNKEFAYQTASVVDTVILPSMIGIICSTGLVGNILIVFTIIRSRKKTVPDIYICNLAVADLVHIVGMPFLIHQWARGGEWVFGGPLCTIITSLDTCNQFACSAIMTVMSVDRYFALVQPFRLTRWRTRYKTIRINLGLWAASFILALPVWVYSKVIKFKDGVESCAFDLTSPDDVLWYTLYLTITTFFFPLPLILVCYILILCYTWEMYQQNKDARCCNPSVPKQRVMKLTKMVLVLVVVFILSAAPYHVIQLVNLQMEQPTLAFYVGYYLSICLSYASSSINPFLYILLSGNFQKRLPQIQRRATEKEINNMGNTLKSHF
T1 sequence (Q99705 whole entry): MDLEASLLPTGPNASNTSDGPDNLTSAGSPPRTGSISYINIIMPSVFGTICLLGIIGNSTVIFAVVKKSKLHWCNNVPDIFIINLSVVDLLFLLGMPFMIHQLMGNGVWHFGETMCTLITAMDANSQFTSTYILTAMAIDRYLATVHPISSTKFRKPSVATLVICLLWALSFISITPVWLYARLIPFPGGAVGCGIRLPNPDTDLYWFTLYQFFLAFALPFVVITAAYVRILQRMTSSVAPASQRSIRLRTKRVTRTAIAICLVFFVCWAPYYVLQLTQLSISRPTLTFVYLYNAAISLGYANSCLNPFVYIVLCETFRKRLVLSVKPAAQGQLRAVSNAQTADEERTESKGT

| MCH-2R Activation % (MCH-2R) | MCH-1R Activation % (MCH-1R [1]) | EC50 (MCH-1R [1]; [3]) | Structure (SMILES) | also measured |
| --- | --- | --- | --- | --- |
|  | 99% |  | CSCC[C@@H]1NC(=O)[C@@H](NC(=O)[C@H](CCCNC(=N)N)NC(C)=O)CSSC[C@@H](C(N)=O)NC(=O)[C@@H]2CCCN2C(=O)[C@H](CCCNC(=N)N)NC(=O)[C@H](Cc2ccc(O)cc2)NC(=O)[C@H](C(C)C)NC(=O)[C@H](CCCNC(=N)N)NC(=O)CNC(=O)[C@H](CC(C)C)NC1=O [SEQ. ID. NO. 2, Ac-hMCH(6-16)-NH2, reference compound] |  |
| 51% | 109% | 160 nM | CSCC[C@@H]1NC(=O)[C@@H](NC(=O)[C@@H](C)NC(C)=O)CSSC[C@@H](C(N)=O)NC(=O)[C@@H]2CCCN2C(=O)[C@H](CCCNC(=N)N)NC(=O)[C@H](Cc2ccc(O)cc2)NC(=O)[C@H](C(C)C)NC(=O)[C@H](CCCNC(=N)N)NC(=O)CNC(=O)[C@H](CC(C)C)NC1=O [SEQ. ID. NO. 6] | Selectivity 2/1 (MCH-2R/MCH-1R IC50 binding ratio) (MCH-1R [2]): 3500; Selectivity 2/1 (MCH-2R/MCH-1R EC50 activity ratio) (MCH-1R [1]): 30 |
| 79% | 117% | 66 nM | CSCC[C@@H]1NC(=O)[C@@H](NC(=O)[C@@H](Cc2ccccc2)NC(C)=O)CSSC[C@@H](C(N)=O)NC(=O)[C@@H]2CCCN2C(=O)[C@H](CCCNC(=N)N)NC(=O)[C@H](Cc2ccc(O)cc2)NC(=O)[C@H](C(C)C)NC(=O)[C@H](CCCNC(=N)N)NC(=O)CNC(=O)[C@H](CC(C)C)NC1=O [SEQ. ID. NO. 9] | Selectivity 2/1 (MCH-2R/MCH-1R IC50 binding ratio) (MCH-1R [2]): 1380; Selectivity 2/1 (MCH-2R/MCH-1R EC50 activity ratio) (MCH-1R [1]): 7 |
|  |  |  | CCCC[C@@H]1NC(=O)[C@@H](NC(=O)[C@H](N)CCCNC(=N)N)CSSC[C@@H](C(N)=O)NC(=O)[C@@H]2CCCN2C(=O)[C@H](CCCNC(=N)N)NC(=O)[C@H](Cc2ccc(O)cc2)NC(=O)[C@H](C(C)C)NC(=O)[C@H](CCCNC(=N)N)NC(=O)[C@H](CC(N)=O)NC(=O)[C@H](CC(C)C)NC1=O [SEQ. ID. NO. 32] (HELM PEPTIDE1{[dR].C.[Nle].L.N.R.V.Y.R.P.C.[am]}$PEPTIDE1,PEPTIDE1,2:R3-11:R3$$$V2.0) | agonism at hMCH-1R in words (MCH-1R [1]): potent and selective hMCH-1R agonists |
| 17% | 109% | 260 nM | CSCC[C@@H]1NC(=O)[C@@H](NC(=O)[C@@H](CCCNC(=N)N)NC(C)=O)CSSC[C@@H](C(N)=O)NC(=O)[C@@H]2CCCN2C(=O)[C@H](C)NC(=O)[C@H](Cc2ccc(O)cc2)NC(=O)[C@H](C(C)C)NC(=O)[C@H](CCCNC(=N)N)NC(=O)[C@H](CC(N)=O)NC(=O)[C@H](CC(C)C)NC1=O [SEQ. ID. NO. 33] (HELM PEPTIDE1{[ac].[dR].C.M.L.N.R.V.Y.A.P.C.[am]}$PEPTIDE1,PEPTIDE1,3:R3-12:R3$$$V2.0) | EC50 (MCH-2R; aequorin, 293AEQ17/MCH-2R cells): > 10000 nM; fold more selective as agonist for hMCH-1R than hMCH-2R (MCH-1R [1]): about 50 fold; fold lower agonist activity at hMCH-1R (MCH-1R [1]; relative to Ac-hMCH(6-16)-NH2): 5 fold |

| Structure (SMILES) | MCH-2R Activation % (MCH-2R) | MCH-1R Activation % (MCH-1R [1]) | EC50 (MCH-1R [1]; [3]) | also measured |
| --- | --- | --- | --- | --- |
| CSCC[C@@H]1NC(=O)[C@@H](NC(=O)[C@H](CCCNC(=N)N)NC(=O)[C@H](CC(C)C)NC(=O)[C@H](CCSC)NC(=O)[C@H](CC(=O)O)NC(=O)[C@H](Cc2ccccc2)NC(=O)[C@@H](N)CC(=O)O)CSSC[C@@H](C(=O)N[C@@H](Cc2c[nH]c3ccccc23)C(=O)N[C@@H](CCC(N)=O)C(=O)N[C@H](C(=O)O)C(C)C)NC(=O)[C@@H]2CCCN2C(=O)[C@H](CCCNC(=N)N)NC(=O)[C@H](Cc2ccc(O)cc2)NC(=O)[C@H](C(C)C)NC(=O)[C@H](CCCNC(=N)N)NC(=O)CNC(=O)[C@H](CC(C)C)NC1=O [SEQ. ID. NO. 1, human MCH, reference compound] | 100% | 100% |  |  |
| CSCC[C@@H]1NC(=O)[C@@H](NC(=O)[C@H](CCCNC(=N)N)NC(C)=O)CSSC[C@@H](C(N)=O)NC(=O)[C@@H]2CCCN2C(=O)[C@H](CCCNC(=N)N)NC(=O)[C@H](Cc2ccc(O)cc2)NC(=O)[C@H](C(C)C)NC(=O)[C@H](CCCNC(=N)N)NC(=O)[C@H](CCC(=O)O)NC(=O)[C@H](CC(C)C)NC1=O [SEQ. ID. NO. 28] | 22% | 21% |  | agonism at hMCH-2R in words (MCH-2R): practically inactive; EC50 (MCH-1R [1]): > 10000 nM; agonism at hMCH-1R in words (MCH-1R [1]): practically inactive |
